In experiment [1] the test system is IL6 production in RAW 264.7 macrophage cell line. Put plainly: Mouse IL6 quantification assay (LPS-stimulated macrophages, ELISA). The format is cell-based. The conditions noted are these: RAW264.7, RAW 264.7 murine leukemia virus transformed macrophage cell lines, LPS stimulation, read-out: IL-6 % Inhibition at 30 μM.
In experiment [2] the test system is TNFα production in RAW 264.7 macrophage cell line. Put plainly: Mouse TNF alpha quantification assay (LPS-stimulated macrophages, ELISA). The format is cell-based. Particulars: RAW264.7, RAW 264.7 murine leukemia virus transformed macrophage cell lines, LPS stimulation, read-out: TNF-α % Inhibition at 30 μM. A general note: An ELISA detects its analyte on a solid surface through an enzyme-linked reagent.

As usually defined, the inhibition is the relative decrease from the control value, in per cent. For the molecule `Oc1nc(-c2ccccn2)nc2c(-c3cccc4c3OCO4)csc12` [drawing 2242], the inhibition at 30 µM in experiment [1] and in experiment [2] was 51 to 75% in each case.

`Nc1nc(O)c2sc(-c3cccc(C(=O)N4CCC(O)C4)c3)cc2n1` (stereo not shown) [drawing 2370]: the inhibition at 30 µM in experiment [1] and in experiment [2] was 0% each time.

As for `CCCNC(=O)CN1CCN(c2nc(-c3ccccn3)nc3sc(-c4ccccc4)cc23)CC1` [drawing 2135], the inhibition at 30 µM in experiment [1] and in experiment [2] was 76 to 100% in each case.

Consider `O=C(c1csc2c(O)nc(-c3ccccn3)nc12)N1CCOC(c2ccccc2)C1` (stereo not shown) [drawing 2191], for which the inhibition at 30 µM in experiment [1] is 51 to 75%; in experiment [2] it was 0%.

For the molecule `CN(CCc1ccncc1)C(=O)c1csc2c(O)nc(N)nc12`, the inhibition at 30 µM was 1 to 25% in experiment [1] and 0% in experiment [2].

`Cc1nc(-c2ccccn2)nc(O)c1CCC(=O)NCC1COc2ccccc2O1` (stereo not shown) [drawing 2035]: the inhibition at 30 µM in experiment [1] was 0%; in experiment [2], 1 to 25%.

On to `O=C(COCCOc1ccccc1)Nc1nnc(-c2ccccn2)[nH]1` [drawing 2005], for which the inhibition at 30 µM was 0% in experiment [1] and 1 to 25% in experiment [2].

For the molecule `Nc1nc(O)c2scc(C(=O)N(CCO)CCOCCO)c2n1` [drawing 2096], the inhibition at 30 µM in experiment [1] was 1 to 25%; in experiment [2] it was 0%.

For the molecule `COCCNc1nc(-c2cn(C)cn2)nc2sc(-c3ccccc3)c(-c3ccccc3)c12` [drawing 2410], the inhibition at 30 µM in experiment [1] and in experiment [2] was 76 to 100% each time.

Regarding `O=C(NCCc1cccnc1)c1csc2c(O)nc(-c3ccccn3)nc12` [drawing 2115], the inhibition at 30 µM in experiment [1] is 26 to 50%; in experiment [2], 0%.

Regarding `CC(O)CNc1nc(-c2nccn2C)nc2sc(-c3ccccc3)c(-c3ccccc3)c12` (stereo not shown) [drawing 2396], the results for the inhibition at 30 µM in experiment [1] and in experiment [2] were 26 to 50% and 0%, respectively.

As to `O=C(c1csc2c(O)nc(-c3ccccn3)nc12)N1CCNC(c2ccc(Cl)cc2)C1` (stereo not shown) [drawing 2352], the inhibition at 30 µM in experiment [1] was in the range of 76 to 100%; in experiment [2], 1 to 25%.

For the molecule `Oc1nc(-c2ccccn2)nc2c(Br)csc12` [drawing 2100], the inhibition at 30 µM in experiment [1] and in experiment [2] was 76 to 100% each time.

Regarding `O=S(=O)(c1ccccc1)N1CCCc2c(O)nc(-c3ccccn3)nc21` [drawing 2084], the inhibition at 30 µM is 0% in experiment [1] and 1 to 25% in experiment [2].

For the molecule `Cn1ccnc1-c1nc(NCCOC(F)(F)F)c2c(-c3ccccc3)c(-c3ccccc3)sc2n1` [drawing 2395], the inhibition at 30 µM in experiment [1] was 26 to 50%; in experiment [2], 1 to 25%.

Take `COc1cc(C)c(-c2csc3c(O)nc(-c4ccccn4)nc23)cc1C` [drawing 2261]: the figures for the inhibition at 30 µM in experiment [1] and in experiment [2] were 51 to 75% and 0%, respectively.

Regarding `O=C(CN1CCN(c2nc(-c3ccccn3)nc3scc(-c4ccccc4)c23)CC1)N1CCCC1` [drawing 2157], the inhibition at 30 µM in experiment [1] and in experiment [2] was 1 to 25% in each case.

For the molecule `CC(Nc1nc(-c2ccccn2)nc2scc(-c3ccccc3)c12)c1nncn1C` (stereo not shown) [drawing 2138], the inhibition at 30 µM in experiment [1] and in experiment [2] was 1 to 25% each time.

`COCCNc1nc(-c2nccn2C)nc2sc(-c3ccncc3)c(-c3ccccc3)c12` [drawing 2409]: the inhibition at 30 µM was 76 to 100% in experiment [1] and 51 to 75% in experiment [2].

In the case of `OC1CCCN(c2nc(-c3ccccn3)nc3scc(-c4ccccc4)c23)C1` (stereo not shown) [drawing 2154], the figures for the inhibition at 30 µM in experiment [1] and in experiment [2] were 26 to 50% and 1 to 25%, respectively.

In the case of `COC1CCN(c2nc(-c3nccn3C)nc3sc(-c4ccccc4)c(-c4ccccc4)c23)C1` (stereo not shown) [drawing 2398], the inhibition at 30 µM in experiment [1] and in experiment [2] was 76 to 100% in each case.

`Oc1nc(-c2ccccn2)nc2cc(-c3ccccc3)sc12` [drawing 2389]: the inhibition at 30 µM fell in the range of 26 to 50% in experiment [1] and 1 to 25% in experiment [2].

Regarding `O=C(CC(c1ccccc1)c1ccccc1)N1CCCc2c(O)nc(-c3ccccn3)nc21` [drawing 2086], the inhibition at 30 µM in experiment [1] is 26 to 50%; in experiment [2], 0%.

With `CCn1nc(C)cc1-c1csc2c(O)nc(-c3ccccn3)nc12` [drawing 2295], the inhibition at 30 µM lay within 76 to 100% in experiment [1] and 51 to 75% in experiment [2].

For `Oc1nc(-c2ccccn2)nc2cc(-c3cccc(Br)c3)sc12` [drawing 2391], the inhibition at 30 µM in experiment [1] and in experiment [2] was 1 to 25% throughout.

Consider `O=C(COCc1ccccc1Cl)Nc1nnc(-c2ccccn2)[nH]1` [drawing 1973], for which the values for the inhibition at 30 µM in experiment [1] and in experiment [2] were 26 to 50% and 1 to 25%, respectively.

On to `CN(CC(=O)Nc1nnc(-c2ccccn2)[nH]1)Cc1ccccc1` [drawing 1988], for which the inhibition at 30 µM lay within 26 to 50% in experiment [1] and 1 to 25% in experiment [2].

Turning to `O=C(Nc1nnc(-c2ccccn2)[nH]1)c1cccc(NC(=O)C2CCCO2)c1` (stereo not shown) [drawing 1961], the figures for the inhibition at 30 µM in experiment [1] and in experiment [2] were 1 to 25% and 0%, respectively.

For `Oc1nc(-c2ccccn2)nc2c(-c3ccnn3-c3ccccn3)csc12` [drawing 2296], the values for the inhibition at 30 µM in experiment [1] and in experiment [2] were 51 to 75% and 0%, respectively.

In the case of `Cc1ccc(-c2csc3c(O)nc(-c4ccccn4)nc23)cc1` [drawing 2387], the inhibition at 30 µM in experiment [1] is 0%; in experiment [2] it was 1 to 25%.

With `CS(=O)(=O)N1CCCc2cc(C(=O)N3CCCc4c(O)nc(-c5ccccn5)nc43)ccc21` [drawing 2077], the inhibition at 30 µM in experiment [1] lay in the range of 76 to 100%; in experiment [2], 1 to 25%.

In the case of `Cn1cnc(-c2nc(O)c3c(-c4ccccc4)c(-c4ccncc4)sc3n2)c1` [drawing 2355], the values for the inhibition at 30 µM in experiment [1] and in experiment [2] were 0% and 1 to 25%, respectively.

Turning to `CN(Cc1cnn(C)c1)c1nc(-c2ccccn2)nc2scc(-c3ccccc3)c12` [drawing 2141], the inhibition at 30 µM in experiment [1] is 76 to 100%; in experiment [2], 26 to 50%.

`O=C(CCn1ccnc1)Nc1nc(-c2ccccn2)nc2sccc12` [drawing 2281]: the inhibition at 30 µM in experiment [1] is 51 to 75%; in experiment [2], 0%.

Turning to `CCCCSc1nc(-c2cccs2)c(C(=O)C(F)(F)F)cc1C#N` [drawing 2053], the values for the inhibition at 30 µM in experiment [1] and in experiment [2] were 51 to 75% and 0%, respectively.

On to `CC(C)(O)c1ccc(-c2csc3c(O)nc(-c4ccccn4)nc23)c(F)c1` [drawing 2272], for which the inhibition at 30 µM in experiment [1] and in experiment [2] was 76 to 100% throughout.

Regarding `O=c1nc(-c2ccccn2)[nH]c2scc(-c3cccs3)c12` [drawing 2024], the figures for the inhibition at 30 µM in experiment [1] and in experiment [2] were 0% and 1 to 25%, respectively.

Take `O=C(Nc1nc(-c2ccccn2)cs1)c1ccccn1` [drawing 2014]: the inhibition at 30 µM in experiment [1] lay in the range of 51 to 75%; in experiment [2] it was 1 to 25%.

Take `Oc1nc(-c2ccccn2)nc2c(-c3ccc4c(c3)OCO4)csc12` [drawing 2271]: the inhibition at 30 µM in experiment [1] and in experiment [2] was 76 to 100% in each case.

With `CCC(C)(C)c1ccc(OCCCC(=O)NC(C(=O)OC)C(C)C)c(C(C)(C)CC)c1` (stereo not shown) [drawing 2054], the inhibition at 30 µM in experiment [1] and in experiment [2] was 26 to 50% throughout.

As to `O=C(c1csc2c(O)nc(-c3ccccn3)nc12)N1CCN(c2ccc(F)cc2F)CC1` [drawing 2185], the results for the inhibition at 30 µM in experiment [1] and in experiment [2] were 76 to 100% and 0%, respectively.

On to `COC(=O)c1cncc(C(=O)Nc2nnc(-c3ccccn3)[nH]2)c1` [drawing 1981], for which the inhibition at 30 µM in experiment [1] and in experiment [2] was 1 to 25% in each case.

For `Oc1nc(-c2ccccn2)nc2c(-c3cncc(C(F)(F)F)c3)csc12` [drawing 2304], the inhibition at 30 µM is 1 to 25% in experiment [1] and 0% in experiment [2].

Regarding `COc1ccc(CN(CC[S+]([O-])c2cc(Cl)ccc2Cl)C2CC2)cc1` (stereo not shown) [drawing 2060], the inhibition at 30 µM is 0% in experiment [1] and 1 to 25% in experiment [2].

Consider `Oc1nc(-c2ccccn2)nc2c(-c3ccccc3)csc12` [drawing 2120], for which the inhibition at 30 µM was 76 to 100% in experiment [1] and 51 to 75% in experiment [2].

As for `Cn1cnc(-c2nc(O)c3scc(-c4cccc(OC(F)(F)F)c4)c3n2)c1` [drawing 2433], the inhibition at 30 µM in experiment [1] and in experiment [2] was 0% each time.

For `Cc1sc2c(O)nc(-c3nccn3C)nc2c1-c1ccc(OCC(C)C)nc1` [drawing 2427], the inhibition at 30 µM in experiment [1] and in experiment [2] was 1 to 25% throughout.

In the case of `Cc1ccccc1N1CCN(C(=O)c2csc3c(O)nc(-c4ccccn4)nc23)CC1` [drawing 2168], the inhibition at 30 µM in experiment [1] lay within 51 to 75%; in experiment [2], 1 to 25%.

Turning to `CC(C)(C(=O)Nc1nc(-c2ccccn2)nc2sccc12)c1ccc(C#N)cc1` [drawing 2178], the inhibition at 30 µM lay in the range of 76 to 100% in experiment [1] and 1 to 25% in experiment [2].

Take `Oc1nc(-c2ccccn2)nc2c(-c3ccccn3)csc12` [drawing 2288]: the inhibition at 30 µM in experiment [1] and in experiment [2] was 76 to 100% throughout.

`CC(C)c1noc(CCC(=O)Nc2nnc(-c3ccccn3)[nH]2)n1` [drawing 1952]: the inhibition at 30 µM was 1 to 25% in experiment [1] and 0% in experiment [2].

As to `CCN(CC)C(=O)c1sc2[nH]c(-c3ccccn3)nc(=O)c2c1C` [drawing 2029], the inhibition at 30 µM in experiment [1] and in experiment [2] was 1 to 25% throughout.

With `O=C(OCCc1ccccc1)N1CCCc2c(O)nc(-c3ccccn3)nc21` [drawing 2085], the inhibition at 30 µM was 76 to 100% in experiment [1] and 26 to 50% in experiment [2].

As for `Oc1nc(-c2ccccn2)nc2c(-c3cc(F)cc(F)c3)csc12` [drawing 2292], the inhibition at 30 µM in experiment [1] lay in the range of 76 to 100%; in experiment [2], 51 to 75%.

Regarding `c1ccc(-c2csc3nc(-c4ccccn4)nc(N4CCOCC4)c23)cc1` [drawing 2155], the inhibition at 30 µM in experiment [1] and in experiment [2] was 1 to 25% throughout.

Take `CN(C)CCOc1cccc(-c2csc3c(O)nc(-c4ccccn4)nc23)c1` [drawing 2323]: the inhibition at 30 µM in experiment [1] and in experiment [2] was 76 to 100% throughout.
